In patent US10071133B2, “Method for destroying exosomes, kit for destroying exosomes, and method for isolating exosomes derived from normal cells” (priority 2015, dated 2018):

Key:
[1] = tested on: exosome fraction B derived from human breast cancer cells versus exosome fraction derived from normal human serum; assay: Selectivity: miR-16 ratio, breast cancer exosomes versus normal human serum exosomes (Formula 2); format: biochemical; details: Formula 2, cancer/normal human serum exosomes; magainin 2 100 μM, 37° C., 24 hours
Description: (§1) A cell suspension of cell line MDA-MB-231-luc-D3H2LN derived from human breast cancer (=MM231-luc-D3H2LN, provided by the National Cancer Center Research Institute) was seeded in a dish containing RPMI 1640 medium (manufactured by Thermo Fisher Scientific Inc.) containing 10% fetal bovine serum. Subsequently, the cell line was grown at 37° C. under the condition that CO2 concentration was set to 5 volume % using a CO2 incubator, and then the medium was replaced with Advanced RPMI 1640 medium (manufactured by Thermo Fisher Scientific Inc.), followed by culturing for 48 hours, and therefore the culture solution containing exosomes was obtained. This culture solution was centrifuged at 2,000 G for 10 minutes to remove the precipitate, followed by centrifugation at 110,000 G for 70 minutes to precipitate the exosomes, and therefore an exosome fraction B was recovered. The recovered exosome fraction B was suspended in a phosphate buffered saline (PBS) and then stored at 4° C. Storage samples were lightly suspended with a vortex mixer (vibration mixer) before use.
Storage samples were lightly suspended with a vortex mixer (vibration mixer) before use. […]

[2] = tested on: exosome fraction B derived from human breast cancer cells versus exosome fraction derived from human mammary gland cells (MCF-10A, normal cells); assay: Selectivity: miR-16 ratio, breast cancer exosomes versus mammary gland normal cell exosomes (Formula 1); format: biochemical
Description: as §1
A cell suspension of cell line MCF 10A derived from human mammary epithelial cells (provided by the National Cancer Center Research Institute) was seeded in a dish containing Mammary Epithelium Cell Basal Medium (manufactured by Lonza). Subsequently, the cell line was grown at 37° C. under the condition that CO2 concentration was set to 5 volume % using a CO2 incubator, and then the medium was replaced with a fresh medium, followed by culturing for 48 hours, and the culture solution containing exosomes was obtained. This culture solution was centrifuged at 2,000 G for 10 minutes to remove the precipitate, followed by centrifugation at 110,000 G for 70 minutes to precipitate the exosomes, and an exosome fraction was recovered. The recovered exosome fraction was suspended in a phosphate buffered saline (PBS) and then stored at 4° C. Storage samples were lightly suspended with a vortex mixer (vibration mixer) before use.
MicroRNA (miR-21 or miR-16) in the reaction solution was subjected to reverse transcription PCR using reverse transcription primers (manufactured by Thermo Fisher Scientific Inc., Taqman microRNA Assays, RT primers, and hsa-mir-21 or hsa-mir-16) and a reverse transcriptase (manufactured by Thermo Fisher Scientific Inc., Taqman microRNA RT kit).
The reverse transcription PCR solution obtained by the above described method was processed and by comparing the number of cycles on a calibration curve of microRNA using Taqman Assay primer (manufactured by Thermo Fisher Scientific Inc., Taqman microRNA Assays, Taqman Assay primer, and hsa-mir-21 or hsa-mir-16) and Real-Time PCR Master Mixes (manufactured by Thermo Fisher Scientific Inc., TaqMan Universal PCR Master Mix II, w/UNG) with StepOnePlus Real-Time PCR System, MiR-21 or miR-16 was quantified. The calibration curve of microRNA was created using synthetic miR-21 (manufactured by Sigma-Aldrich Co. LLC.) or synthetic miR-16 (manufactured by Sigma-Aldrich Co. LLC.).
10 μL of the exosome fraction was prepared such that PBS contains 1×10^11 particles/mL of the exosome fraction B derived from human breast cancer cells, various antimicrobial peptides shown in the following Table 4 adjusted to 100 μM, and 0.4 U/μL of RNase inhibitor (manufactured by Toyobo Co., Ltd.), followed by incubation by being left to stand at 37° C. for 24 hours.
Thereafter, the eluted MicroRNA (miR-16) was purified and recovered from the incubated solution by the same method as the above described method for extraction from the incubated solution of Examples 10 and 11 above and Comparative Examples 6 and 7 above. […]

[3] = tested on: exosomes derived from human breast cancer cells (MM231-luc-D3H2LN) in human peripheral blood sample; details: […]10^10 particles/mL exosomes, 100 μM magainin 2 or 8% phenol, 25° C., 24 hours
Description: The exosome fraction A prepared from the cell line MM231-luc-D3H2LN derived from human breast cancer cells was added to a peripheral blood sample collected from a healthy person with no cancer (hereinafter will be also referred to as human peripheral blood sample) so as to become an exosome concentration of an actual cancer patient, and thereby an artificial sample of a human peripheral blood of the cancer patient was produced. The human peripheral blood sample was obtained after procurement of the patient informed consent according to the Declaration of Helsinki, similarly to the method described in Japanese Unexamined patent publication No. 2013-198483, for example. Blood was drawn using a blood collection tube containing an anticoagulant.
Using a part of the incubated solution, the exosomes were purified with Exo-Flow32 CD9 IP Kit (manufactured by SBI), and then the number of exosomes in the solution was measured using the nanoparticle analyzer (NanoSight LM10; manufactured by NanoSight, Ltd.). […] In addition, a part of the incubated solution was subjected to the serum component protein electrophoresis.

Substance: Magainin 2
- mir-16 ratio [1]: 56.6
- mir-16 ratio ([2]; Formula 1, cancer/normal (MCF-10A), 100 μM peptide, 37° C., 24 hours): 26
- Selectivity ([2]; from miR-16 ratio versus Comparative Example 8, breast cancer vs MCF-10A exosomes): B (evaluated as “B” in a case where the calculated miR-16 value was higher than the miR-16 ratio of Comparative Example 8)
- exosome amount compared to Comparative Example 3 (no additive) [3]: decreased
